Our source for the Emax values is patent US20260256751A1, “COMBINATION OF BETA-2-ADRENERGIC RECEPTOR AGONISTS AND GLP-1 RECEPTOR AGONISTS FOR USE IN TREATING HYPERGLYCAEMIA” (ATROGI AB, priority 2023, published 2026).

Each structure is given as a SMILES string.

In assay [1] the test system is differentiated L6-myotubes. Description: Glucose uptake screen (Biological example 1 of WO 2019/053427). To be noted: compound at 10 μM, activity relative to isoproterenol at 10 μM, read-out: Biological example 1 of WO 2019/053427 (GU). The assay is classed as cell-based. An outline of the steps:
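Uptake was read out as ^3H-2-deoxyglucose (50 nM, 10 min) radioactivity in NaOH lysates. Beforehand, overnight-starved, differentiated L6 myotubes received compound at 1×10^−5 M with ICI-118551 present for 1 h 40 min, followed by fresh agonist for a further 20 min in glucose-free medium.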

Assay [2] deals with differentiated L6-myotubes. Description: cAMP production relative to isoprenaline (Biological example 2 of WO 2019/053427). In kind it is cell-based. To be noted: 0.25 h, compound at 10 μM, activity relative to isoproterenol at 10 μM. Put shortly:
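Values are cAMP levels relative to isoprenaline at equal concentration (final 1×10^−5 M for both). Stimulation lasted 15 min in differentiated L6 myotubes, using HBSS buffer (pH 7.4) containing 1 mM IBMX, 5 mM HEPES and 1% BSA.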
Background: Cyclic AMP is a second messenger, typically raised through Gs and lowered through Gi signalling.

Take `O[C@H](c1cccc(F)c1)[C@H]1CCC2(CC2)N1` [Compound 170, (R)-{(R)-4-aza-5-spiro[2.4]heptyl}(m-fluorophenyl)methanol]: the Emax at 10 µM in assay [1] was 50 to 75%; in assay [2] it was below 25%.
On to `O[C@@H](c1cccc(F)c1)[C@H]1CCC2(CC2)N1` [Compound 171, (S)-{(R)-4-aza-5-spiro[2.4]heptyl}(m-fluorophenyl)methanol], for which the Emax at 10 µM in assay [1] is 25 to 50%; in assay [2] it was below 25%.
Taken in the same sequence, the figures for `CC1(C)CC[C@H]([C@@H](O)c2ccc(F)cc2)N1` [Compound 172, (S)-[(R)-5,5-dimethyl-2-pyrrolidinyl](p-fluorophenyl)methanol] were below 25% and below 25%.
Turning to `CC1(C)CC[C@H]([C@H](O)c2ccc(F)cc2)N1` [Compound 173, (R)-[(R)-5,5-dimethyl-2-pyrrolidinyl](p-fluorophenyl)methanol], the Emax at 10 µM is 50 to 75% in assay [1] and below 25% in assay [2].
Turning to `CC1(C)CC[C@H]([C@@H](O)c2ccccc2F)N1` [Compound 174, (S)-[(R)-5,5-dimethyl-2-pyrrolidinyl](o-fluorophenyl)methanol], the Emax at 10 µM in assay [1] and in assay [2] was below 25% in each case.
As for `CC1(C)CC[C@H]([C@H](O)c2ccccc2F)N1` [Compound 175, (R)-[(R)-5,5-dimethyl-2-pyrrolidinyl](o-fluorophenyl)methanol], the Emax at 10 µM is above 75% in assay [1] and 25 to 50% in assay [2].
Consider `CC1(C)CCC[C@H]([C@@H](O)c2ccccc2F)N1` [Compound 176, (S)-[(R)-6,6-dimethyl-2-piperidyl](o-fluorophenyl)methanol], for which the Emax at 10 µM is above 75% in assay [1] and 25 to 50% in assay [2].
As to `CC1(C)CCC[C@H]([C@H](O)c2ccccc2F)N1` [Compound 177, (R)-[(R)-6,6-dimethyl-2-piperidyl](o-fluorophenyl)methanol], the Emax at 10 µM in assay [1] was 50 to 75%; in assay [2] it was below 25%.
For `CC12CCC([C@@H](O)c3cccc(F)c3)(CC1)N2` [Compound 178, (S)-(m-fluorophenyl)(4-methyl-7-azabicyclo[2.2.1]hept-1-yl)methanol], the Emax at 10 µM in assay [1] was 25 to 50%; in assay [2], below 25%.
`CC12CCC([C@H](O)c3cccc(F)c3)(CC1)N2` [Compound 179, (R)-(m-fluoropehnyl)(4-methyl-7-azabicyclo[2.2.1]hept-1-yl)methanol]: the figures for the Emax at 10 µM in assay [1] and in assay [2] were 50 to 75% and below 25%, respectively.
Turning to `CC12CCC([C@@H](O)c3ccccc3F)(CC1)N2` [Compound 180, (S)-(o-fluorophenyl)(4-methyl-7-azabicyclo[2.2.1]hept-1-yl)methanol], the Emax at 10 µM in assay [1] was above 75%; in assay [2] it was below 25%.
With `CC12CCC([C@H](O)c3ccccc3F)(CC1)N2` [Compound 181, (R)-(o-fluorophenyl)(4-methyl-7-azabicyclo[2.2.1]hept-1-yl)methanol], the Emax at 10 µM was above 75% in assay [1] and below 25% in assay [2].
Turning to `CCCC12CCC([C@@H](O)c3cccc(F)c3)(CC1)N2` [Compound 182, (S)-(m-fluorophenyl)(- propyl-7-azabicyclo[2.2.1]hept-1-yl)methanol], the Emax at 10 µM in assay [1] and in assay [2] was below 25% each time.
As to `CCCC12CCC([C@H](O)c3cccc(F)c3)(CC1)N2` [Compound 183, (R)-(m-fluorophenyl)(4-propyl-7-azabicyclo[2.2.1]hept-1-yl)methanol], the Emax at 10 µM in assay [1] fell in the range of 50 to 75%; in assay [2], 25 to 50%.
On to `CC12CCC([C@@H](O)c3cncc(F)c3)(CC1)N2` [Compound 184, (S)-(5-fluoro-3-pyridyl)(4-methyl-7-azabicyclo[2.2.1]hept-1-yl)methanol], for which the Emax at 10 µM is 50 to 75% in assay [1] and below 25% in assay [2].
On to `CC12CCC([C@H](O)c3cncc(F)c3)(CC1)N2` [Compound 185, (R)-(5-fluoro-3-pyridyl)(4-methyl-7-azabicyclo[2.2.1]hept-1-yl)methanol], for which the Emax at 10 µM in assay [1] was above 75%; in assay [2], below 25%.
On to `CC12CC(C1)[C@H]([C@H](O)c1cccc(F)c1)N2` [Compound 186, (R)-{(R)-1-methyl-2-azabicyclo[2.1.1]hex-3-yl}(m-fluorophenyl)methanol], for which the Emax at 10 µM in assay [1] is above 75%; in assay [2], 50 to 75%.
`CC12CC(C1)[C@H]([C@@H](O)c1cccc(F)c1)N2` [Compound 187, (S)-{(R)-1-methyl-2-azabicyclo[2.1.1]hex-3-yl}(m-fluorophenyl)methanol]: the Emax at 10 µM in assay [1] was 25 to 50%; in assay [2], below 25%.
`CC12CC(C1)[C@@H]([C@H](O)c1cccc(F)c1)N2` [Compound 188, (R)-{(S)-1-methyl-2-azabicyclo[2.1.1]hex-3-yl}(m-fluorophenyl)methanol]: the Emax at 10 µM in assay [1] and in assay [2] was below 25% throughout.
With `CC12CC(C1)[C@@H]([C@@H](O)c1cccc(F)c1)N2` [Compound 189, (S)-{(S)-1-methyl-2-azabicyclo[2.1.1]hex-3-yl}(m-fluorophenyl)methanol], the values for the Emax at 10 µM in assay [1] and in assay [2] were 50 to 75% and below 25%, respectively.
Consider `CC1(C)CCC[C@@H]([C@H](O)c2cccc(F)c2)N1` [Compound 190, (R)-[(S)-6,6-dimethyl-2-piperidyl](m-fluorophenyl)methanol], for which the Emax at 10 µM in assay [1] is above 75%; in assay [2], below 25%.
For the compound `CC1(C)CCC[C@@H]([C@@H](O)c2cccc(F)c2)N1` [Compound 191, (S)-[(S)-6,6-dimethyl-2-piperidyl](m-fluorophenyl)methanol], the Emax at 10 µM in assay [1] is 25 to 50%; in assay [2], below 25%.
On to `CC1(C)CCC[C@@H]([C@@H](O)c2ccccc2F)N1` [Compound 192, (S)-[(S)-6,6-dimethyl-2-piperidyl](o-fluorophenyl)methanol], for which the Emax at 10 µM in assay [1] is 25 to 50%; in assay [2] it was below 25%.
On to `CC1(C)CCC[C@@H]([C@H](O)c2ccccc2F)N1` [Compound 193, (R)-[(S)-6,6-dimethyl-2-piperidyl](o-fluorophenyl)methanol], for which the figures for the Emax at 10 µM in assay [1] and in assay [2] were above 75% and 25 to 50%, respectively.
For `CC12CCC([C@@H](O)c3ccccc3Cl)(CC1)N2` [Compound 194, (S)-(o-chlorophenyl)(4-methyl-7-azabicyclo[2.2.1]hept-1-yl)methanol], in that order: above 75% and below 25%.
`CC12CCC([C@H](O)c3ccccc3Cl)(CC1)N2` [Compound 195, (R)-(o-chlorophenyl)(4-methyl-7-azabicyclo[2.2.1]hept-1-yl)methanol]: the Emax at 10 µM in assay [1] is above 75%; in assay [2], below 25%.
As for `CC12CCC([C@@H](O)c3cccc(Cl)c3)(CC1)N2` [Compound 196, (S)-(m-chlorophenyl)(4-methyl-7-azabicyclo[2.2.1]hept-1-yl)methanol], the Emax at 10 µM in assay [1] is 25 to 50%; in assay [2], below 25%.
As for `CC12CCC([C@H](O)c3cccc(Cl)c3)(CC1)N2` [Compound 197, (R)-(m-chlorophenyl)(4-methyl-7-azabicyclo[2.2.1]hept-1-yl)methanol], the Emax at 10 µM in assay [1] is above 75%; in assay [2], below 25%.
Taken in the same sequence, the figures for `CC1(C)C[C@H]([C@H](O)c2cccc(F)c2)N1` [Compound 198, (R)-[(R)-4,4-dimethyl-2-azetidinyl](m-fluorophenyl)methanol] were above 75% and 25 to 50%.
In the case of `CC1(C)C[C@@H]([C@@H](O)c2cccc(F)c2)N1` [Compound 199, (S)-[(S)-4,4-dimethyl-2-azetidinyl](m-fluorophenyl)methanol], the Emax at 10 µM in assay [1] is 25 to 50%; in assay [2], below 25%.
Taken in the same sequence, the figures for `CC1(C)C[C@@H]([C@H](O)c2cccc(F)c2)N1` [Compound 200, (R)-[(S)-4,4-dimethyl-2-azetidinyl](m-fluorophenyl)methanol] were below 25% and below 25%.
For `CC1(C)C[C@H]([C@@H](O)c2cccc(F)c2)N1` [Compound 201, (S)-[(R)-4,4-dimethyl-2-azetidinyl](m-fluorophenyl)methanol], in that order: below 25% and below 25%.
Taken in the same sequence, the figures for `CC1(C)C[C@@H]([C@H](O)c2ccccc2F)N1` [Compound 202, (R)-[(S)-4,4-dimethyl-2-azetidinyl](o-fluorophenyl)methanol] were below 25% and below 25%.
For the compound `CC1(C)C[C@H]([C@@H](O)c2ccccc2F)N1` [Compound 203, (S)-[(R)-4,4-dimethyl-2-azetidinyl](o-fluorophenyl)methanol], the Emax at 10 µM is 25 to 50% in assay [1] and below 25% in assay [2].
For the compound `CC1(C)C[C@H]([C@H](O)c2ccccc2F)N1` [Compound 204, (R)-[(R)-4,4-dimethyl-2-azetidinyl](o-fluorophenyl)methanol], the Emax at 10 µM in assay [1] is above 75%; in assay [2], 25 to 50%.
With `CC1(C)C[C@@H]([C@@H](O)c2ccccc2F)N1` [Compound 205, (S)-[(S)-4,4-dimethyl-2-azetidinyl](o-fluorophenyl)methanol], the Emax at 10 µM in assay [1] was 25 to 50%; in assay [2] it was below 25%.
